The text below walks through data of US20080004317A1, “Compounds” (AstraZeneca AB, priority 2004, published 2008).

For one series, the system named is plasma protein. As to the kind of experiment: Plasma protein binding by ultrafiltration. Format: in vitro ADME. The following applies: 10 μM. On the procedure: Plasma protein binding was determined by ultrafiltration in an automated 96 well format assay. On each test occasion the plasma protein binding of a reference compound (budesonide) was monitored in parallel.
Test compounds (10 mM dissolved in DMSO) were added to plasma to a final concentration of 10 μM and equilibrated at room temperature for 10 minutes. 350 μL of the plasma was transferred to an ultrafiltration plate, Microcon-96 (10 kDa cutoff, Millipore). The ultrafiltration plate was centrifuged at 3000 G for 70 minutes at room temperature. After centrifugation, the concentration of the compounds in the obtained plasma water (the unbound fraction) was determined by LC-MS/MS using a 3-point calibration curve and compared to the concentration in the original spiked plasma.
The analyses were performed using a gradient chromatographic system with acetic acid/acetonitrile as mobile phases. The detection was done using a triple quadropole mass spectrometer, API3000 or API4000, from Applied Biosystems, with an electrospray interface.

Series [1] has as its target T1, Recombinant human MMP9 catalytic domain (Homo sapiens, UniProt P14780).
T1 sequence (P14780 with tags, fused parts or gaps DEL216-390 limits assumed): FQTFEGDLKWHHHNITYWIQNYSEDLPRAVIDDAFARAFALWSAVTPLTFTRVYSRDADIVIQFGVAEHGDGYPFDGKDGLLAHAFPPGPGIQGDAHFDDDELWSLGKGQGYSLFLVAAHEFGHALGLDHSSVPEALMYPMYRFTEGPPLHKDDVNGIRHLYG
As to the kind of experiment: MMP9 isolated enzyme assay. Format: biochemical. As to conditions: read-out: hMMP9 IC50. On the procedure: Recombinant human MMP9 catalytic domain was expressed and then purified by Zn chelate column chromatography followed by hydroxamate affinity column chromatography. The enzyme can be used to monitor inhibitors of activity as follows: MMP9 (5 ng/ml final concentration) is incubated for 30 minutes at RT with the synthetic substrate Mca-Pro-Cha-Gly-Nva-His-Ala-Dpa-NH2 (5 μM) in assay buffer (0.1M “Tris-HCl”™ buffer, pH 7.3 containing 0.1M NaCl, 20 mM CaCl2, 0.020 mM ZnCl and 0.05% (w/v) “Brij 35”™ detergent) in the presence (10 concentrations) or absence of inhibitors. Activity is determined by measuring the fluorescence at λex 320 nm and λem 405 nm. Percent inhibition is calculated as follows: % Inhibition is equal to the [Fluorescenceplus inhibitor−Fluorescencebackground] divided by the [Fluorescenceminus inhibitor−Fluorescencebackground]. MMP14
A protocol for testing against other matrix metalloproteinases, including MMP9, using expressed and purified pro MMP is described, for instance, by C. Graham Knight et al., (1992) FEBS Lett., 296(3), 263-266.

For series [2], the target named is T2, Recombinant human MMP12 catalytic domain (Homo sapiens, UniProt P39900).
T2 construct: Recombinant human MMP12 catalytic domain; made in house
T2 sequence (P39900 106-263 limits assumed): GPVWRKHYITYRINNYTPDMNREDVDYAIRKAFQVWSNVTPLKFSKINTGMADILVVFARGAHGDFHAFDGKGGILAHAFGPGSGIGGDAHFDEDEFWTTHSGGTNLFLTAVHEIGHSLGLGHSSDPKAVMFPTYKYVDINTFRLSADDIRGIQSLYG
As to the kind of experiment: MMP12 isolated enzyme assay. Format: biochemical. The following applies: read-out: hMMP12 IC50. The protocol: Recombinant human MMP12 catalytic domain may be expressed and purified as described by Parkar A. A. et al, (2000), Protein Expression and Purification, 20, 152. The purified enzyme can be used to monitor inhibitors of activity as follows: MMP12 (50 ng/ml final concentration) is incubated for 60 minutes at room temperature with the synthetic substrate Mca-Pro-Cha-Gly-Nva-His-Ala-Dpa-NH2 (10 μM) in assay buffer (0.1M “Tris-HCl”™ buffer, pH 7.3 containing 0.1M NaCl, 20 mM CaCl2, 0.020 mM ZnCl and 0.05% (w/v) “Brij 35”™ detergent) in the presence (10 concentrations) or absence of inhibitors. Activity is determined by measuring the fluorescence at λex 320 nm and λem 405 nm. Percent inhibition is calculated as follows: % Inhibition is equal to the [Fluorescenceplus inhibitor−Fluorescencebackground] divided by the [Fluorescenceminus inhibitor−Fluorescencebackground]. MMP8

A short description of series [3]: Solubility in 0.1M phosphate buffer, pH 7.4. Format: physicochemical. As to conditions: aqueous buffer, thermodynamic from solid, pH 7.4, 20° C. On the procedure:
Protocol for Determination of Solubility
The test compound (1 mg) was weighed into a 2 mL glass vial with a screw cap and 0.1M phosphate buffer pH 7.4. (1.00 mL) was added. The sample vial was then sonicated for about 10 minutes and then placed on a shake board overnight at 20° C. The contents of the sample vial were then filtered through a Millipore Millex-LH 0.45 μm filter into a new 2 mL glass vial to give a clear solution. The clear solution (40 μL) was transferred to a new 2 mL glass vial and diluted with 0.1M phosphate buffer, pH 7.4 (960 μL).
A standard calibration curve for each particular test compound was established using solutions of known concentration. These solutions of known concentration were normally chosen to have concentrations of ˜10 μg/mL and ˜50 μg/mL. They were prepared by dissolving a known weight of the compound in 99.5% ethanol (500 μL) and then sonicating for one minute if necessary. If the compound was still not completely dissolved, DMSO (500 μL) was added and the mixture sonicated for an additional one minute. The resulting solution was then diluted to the appropriate volume with a mixture of acetonitrile/100 mM ammonium acetate pH 5.5 20-50/80-50. If necessary, a further, more dilute, standard solution was prepared by dilution.

For series [4], the target named is T3, Recombinant human MMP14 catalytic domain (Homo sapiens, UniProt P50281).
T3 construct: Recombinant human MMP14 catalytic domain; made in house
As to the kind of experiment: MMP14 isolated enzyme assay. The following applies: read-out: hMMP14 IC50. Format: biochemical. On the procedure: Recombinant human MMP14 catalytic domain may be expressed and purified as described by Parkar A. A. et al, (2000), Protein Expression and Purification, 20, 152. The purified enzyme can be used to monitor inhibitors of activity as follows: MMP14 (10 ng/ml final concentration) is incubated for 60 minutes at room temperature with the synthetic substrate Mca-Pro-Cha-Gly-Nva-His-Ala-Dpa-NH2 (10 μM) in assay buffer (0.1M “Tris-HCl” (trade mark) buffer, pH 7.5 containing 0.1M NaCl, 20 mM CaCl2, 0.020 mM ZnCl and 0.05% (w/v) “Brij 35”™ detergent) in the presence (5 concentrations) or absence of inhibitors. Activity is determined by measuring the fluorescence at λex 320 nm and λem 405 nm. Percent inhibition is calculated as follows: % Inhibition is equal to the [Fluorescenceplus inhibitor−Fluorescencebackground] divided by the [Fluorescenceminus inhibitor−Fluorescencebackground].

For another series, the target named is T4, MMP8 (Homo sapiens, UniProt P22894).
T4 construct: purchased Calbiochem
T4 sequence (P22894 101-467): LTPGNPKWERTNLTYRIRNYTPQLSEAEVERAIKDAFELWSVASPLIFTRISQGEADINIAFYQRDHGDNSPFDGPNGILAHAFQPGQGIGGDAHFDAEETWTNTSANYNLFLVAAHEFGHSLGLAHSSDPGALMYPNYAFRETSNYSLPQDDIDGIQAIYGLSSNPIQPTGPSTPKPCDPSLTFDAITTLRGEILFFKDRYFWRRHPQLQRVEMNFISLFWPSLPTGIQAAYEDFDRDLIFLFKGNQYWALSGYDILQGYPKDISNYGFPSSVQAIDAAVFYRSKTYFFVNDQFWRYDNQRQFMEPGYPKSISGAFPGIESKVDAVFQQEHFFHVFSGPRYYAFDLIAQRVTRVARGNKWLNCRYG
As to the kind of experiment: MMP8 isolated enzyme assay. Format: biochemical. The following applies: read-out: hMMP8 IC50. The protocol: Purified pro-MMP8 is purchased from Calbiochem. The enzyme (at 10 μg/ml) is activated by p-amino-phenyl-mercuric acetate (APMA) at 1 mM for 2.5 h, 35° C. The activated enzyme can be used to monitor inhibitors of activity as follows: MMP8 (200 ng/ml final concentration) is incubated for 90 minutes at 35° C. (80% H2O) with the synthetic substrate Mca-Pro-Cha-Gly-Nva-His-Ala-Dpa-NH2 (12.5 μM) in assay buffer (0.1M “Tris-HCl”™ buffer, pH 7.5 containing 0.1M NaCl, 30 mM CaCl2, 0.040 mM ZnCl and 0.05% (w/v) “Brij 35”™ detergent) in the presence (10 concentrations) or absence of inhibitors. Activity is determined by measuring the fluorescence at λex 320 nm and λem 405 nm. Percent inhibition is calculated as follows: % Inhibition is equal to the [Fluorescenceplus inhibitor−Fluorescencebackground] divided by the [Fluorescenceminus inhibitor−Fluorescencebackground]. MMP9

As usually defined, the IC50 is the concentration needed to halve the response being measured. For orientation: solubility means the concentration that dissolves in the medium under given conditions. The low end stands for a poorly soluble substance, the high end for a readily soluble substance.

Converted amounts (≈) assume the structure as drawn.

On to `CCc1ccc(C#CC2=CCN(S(=O)(=O)C[C@@]3(C)NC(=O)NC3=O)CC2)cn1` [Example 4, (5S)-5-({[4-[(6-Ethylpyridin-3-yl)ethynyl]-3,6-dihydropyridin-1-(2H)-yl]sulfonyl}methyl)-5-methylimidazolidine-2,4-dione], for which the “Protein binding (% free)” value in the series on plasma protein is recorded as 9.7 % free. Also, the IC50 was 8 nM in series [1], 3 nM in series [2], greater than 10000 nM in series [4] and 780 nM on MMP8. This compound displayed a solubility in series [3] of 1300 µM (≈ 522 µg/mL).
On to `C[C@]1(CS(=O)(=O)N2CC=C(C#Cc3ccc(C(F)(F)F)nc3)CC2)NC(=O)NC1=O` [Example 5, (5S)-5-Methyl-5-({[4-{[6-(trifluoromethyl)pyridin-3-yl]ethynyl}-3,6-dihydropyridin-1(2H)-yl]sulfonyl}methyl)imidazolidine-2,4-dione], for which the IC50 is 7 nM in series [1], 5 nM in series [2], greater than 10000 nM in series [4] and 430 nM on MMP8. The solubility in series [3] came to 41 µM (≈ 18.1 µg/mL).
In the case of `C[C@]1(CS(=O)(=O)N2CC=C(C#Cc3ccccn3)CC2)NC(=O)NC1=O` [WO 02/074767, page 119, (5S)-5-methyl-5-({[4-(pyridin-2-ylethynyl)-3,6-dihydropyridin-1(2H)-yl]sulfonyl}-methyl)-imidazolidine-2,4-dione, reference compound], the IC50 is 11200 nM in series [1], 140 nM in series [2], greater than 1000 nM in series [4] and greater than 1000 nM at MMP8. The compound also registered a solubility in series [3] of 1600 µM (≈ 598 µg/mL).
